Patent US12691101B2, “Compound and method for preventing or treating of respiratory diseases comprising the same as an active ingredient” (YONSEI UNIVERSITY, UNIVERSITY - INDUSTRY FOUNDATION (UIF), priority 2019, dated 2026)
Entries after “also recorded” stand apart in the source; their conditions may differ.

Key:
MUC5AC mRNA = experiment: Real-time PCR of MUC5AC mRNA in IL-4-treated HNE cells; type: cell-based, human; settings: IL-4-treated HNE cells (F10: 120 hours after treatment)
Method: (A) The MUC5AC mRNA expression level was determined at the indicated time after treatment of F56 ([…]) in IL-4 (10 ng/ml)-treated HNE cells (mean±S.E., n=4). (B) Periodic acid-Schiff (PAS) staining showing goblet cell hyperplasia of IL-4 and IL-13 (10 ng/ml)-treated HNE cells in presence or absence of F56 ([…]) at Day 7. (C) Measurement of the total volume of ASL and fluid meniscus in HNE cells expressing wild-type (wt) or mutant (mt) PDS. The HNE cells were treated with IL-4 (10 ng/ml, 48 hours) in presence or absence of […]. (D) Representative image of a transwell insert having normal HNE cells. Arrows indicate the fluid meniscus of HNE cells treated with IL-4 (10 ng/ml, 48 hours) in presence or absence of […]. (E) Representative protein expression result of pendrin in IL-4 and IL-13-treated HNE cells. […]
The MUC5AC mRNA expression level was determined in 120 hours after F10 treatment by real-time quantitative PCR in IL-4-treated HNE cells.
The total messenger RNA (mRNA) was extracted using TRIzol reagent (Invitrogen, Carlsbad, CA, USA), and was reverse-transcribed using a random hexamer primer, an oligo(dT) primer and SuperScript® III reverse transcriptase (Invitrogen). Quantitative real-time PCR was performed using StepOnePlus Real-Time PCR system (Applied Biosystems, Foster City, CA, USA) and Thunderbird SYBR qPCR mix (Tokyobo, Osaka, Japan). […]

CHO-K1 cells = experiment: Cell viability, MTS colorimetric analysis, CHO-K1; type: cell-based, Chinese hamster; settings: 24 hours, up to 30 μM
Method: (A) Pendrin-mediated Cl^−/I^− exchange activity (mean±S.E., n=5). The indicated concentration of F56 was pretreated for 10 minutes. (B, C) Representative tracing of intracellular pH. The application of Cl^− free solution induced intracellular alkalization through pendrin-mediated Cl^−/HCO3^− and Cl^−/OH^− exchange activity. The indicated concentration of F56 was pretreated for 10 minutes. (D-F) The pendrin-mediated Cl^−/I^− exchange activity was measured in CHO-K1 cells expressing human pendrin. The indicated concentration of F56, PDSinh-A01 and PDSinh-C01 was pretreated for 10 minutes. (G) Summary of dose-response of F56, PDSinh-A01 and PDSinh-C01 (mean±S.E., n=3). (H, I) Effect of F56, PDSinh-A01 and PDSinh-C01 on the cell viability in NIH3T3 (H) and CHO-K1 (I) cells. The cells were treated with F56, PDSinh-A01 and PDSinh-C01 for 24 hours. The cell viability was measured by MTS colorimetric analysis (mean±S.E., n=3). NTC, non-transfected cells.
The cells were treated with F10 for 24 hours. The cell viability was determined by MTS colorimetric analysis (mean±S.E., n=3).

[1] = target: T1, human wild-type (WT)-pendrin (Homo sapiens, UniProt O43511); experiment: Pendrin-mediated Cl^−/HCO3^− exchange activity in CHO-K1 cells; type: cell-based; settings: for inhibition of pendrin Cl^−/HCO3^− exchange activity: CHO-K1 cells, pretreated 10 minutes
T1 construct: expressed in transfected cells
T1 sequence (O43511 1-780): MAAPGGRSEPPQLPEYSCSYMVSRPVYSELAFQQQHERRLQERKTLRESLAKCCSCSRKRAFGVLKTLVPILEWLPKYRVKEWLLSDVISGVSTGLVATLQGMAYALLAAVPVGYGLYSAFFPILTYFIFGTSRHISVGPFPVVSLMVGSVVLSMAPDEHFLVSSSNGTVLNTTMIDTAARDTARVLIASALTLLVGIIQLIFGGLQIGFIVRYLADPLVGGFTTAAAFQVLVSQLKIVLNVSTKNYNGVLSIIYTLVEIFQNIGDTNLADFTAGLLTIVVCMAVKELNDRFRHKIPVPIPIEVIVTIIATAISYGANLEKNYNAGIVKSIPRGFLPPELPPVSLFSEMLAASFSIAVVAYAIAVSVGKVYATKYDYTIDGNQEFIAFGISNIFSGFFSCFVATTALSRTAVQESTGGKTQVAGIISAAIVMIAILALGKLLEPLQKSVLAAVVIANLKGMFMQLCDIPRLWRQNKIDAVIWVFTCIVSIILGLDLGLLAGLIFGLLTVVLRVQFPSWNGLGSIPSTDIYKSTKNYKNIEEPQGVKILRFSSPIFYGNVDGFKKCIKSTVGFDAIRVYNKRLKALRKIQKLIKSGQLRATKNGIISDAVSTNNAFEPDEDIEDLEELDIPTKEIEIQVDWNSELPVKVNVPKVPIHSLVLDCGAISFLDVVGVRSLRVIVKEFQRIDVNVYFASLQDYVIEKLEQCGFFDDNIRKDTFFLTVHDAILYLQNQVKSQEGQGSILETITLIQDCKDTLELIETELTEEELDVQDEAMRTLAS
Method: For measurement of Cl^−/HCO3^− exchange activity, intracellular pH (pHi) was measured in WT-pendrin expressing CHO-K1 and HNE cells using pH sensor SNARF5-AM (Molecular Probes). The cells were treated with 5 μM SNARF5-AM for 30 minutes, and then were equipped in a perfusion chamber on the stage of a reverse fluorescence microscope (Nikon, Tokyo, Japan) equipped with a cooled charge-coupled device camera (Zyla sCMOS), image acquisition and analysis software (Meta Imaging Series 7.7). The cells were perfused with a HCO3^− buffer solution containing 120 NaCl, 5 KCl, 1 MgCl2, 1 CaCl2, 10 D-glucose, 5 HEPES, and 25 NaHCO3 (pH 7.4) (mM). To measure the Cl^−/HCO3^− exchange activity, the HCO3^− buffer solution was changed to Cl^−-free HCO3^− buffer solution. When external Cl^−-free HCO3^− buffer solution is applied, the outflow of Cl^− and inflow of HCO3^− are increased by pendrin. To maintain the pH of the HCO3^− buffer solution, the solution was continuously gas treated with 95% O2 and 5% CO2. SNARF5 fluorescence was recorded at 515±10 nm of the excitation wavelength and 640±10 nm of the emission wavelength, and intracellular pH calibration was performed with a solution including 145 mM KCl, 10 mM HEPES and […] nigericin having a calibrated pH to 6.2-7.6.
When the CHO-K1 cells overexpressing WT-pendrin and iodine sensitive YFP are treated with a high concentration Cl^− solution, Cl^− moves to the cells and HCO3^− moves outside of the cells, and this change induces acidification of intracellular pH with reduction of YFP fluorescence.

| SMILES | mRNA expression of IL-4-induced MUC5AC (MUC5AC mRNA) | cytotoxicity in CHO-K1 cells (CHO-K1 cells) | inhibition of pendrin Cl^−/HCO3^− exchange activity [1] | IC50 ([1]; FIG. 4(a), read-out: 50% inhibition of Cl^−/HCO3^− exchange activity) [µM] |
| --- | --- | --- | --- | --- |
| CC(C)(C)c1ccc(C2=NC(=Cc3ccc[nH]3)C(=O)O2)cc1 [F10, 4-((1H-pyrrol-2-yl)methylene)-2-(4-(tert-butyl)phenyl)oxazol-5 (4H)-one] | reduced the mRNA expression of MUC5AC in a concentration-dependent manner | did not show any cytotoxicity up to 30 μM | strongly inhibit | – |
| CC(C)(C)c1ccc(C2=NC(=Cc3cccs3)C(=O)O2)cc1 [F56, 2-(4-(tert-butyl)phenyl)-4-(thiophen-2-ylmethylene)oxazol-5(4H)-one] | significantly reduced | did not show cytotoxicity up to 30 μM | significantly inhibited; also recorded: strongly inhibited | ~10 |
